Measurements published in patent US12365696B2, “Small-molecule focal adhesion kinase (FAK) inhibitors” (DANA-FARBER CANCER INSTITUTE, INC., priority 2019, dated 2025).

Tests used:
Assay in all cases: KINOMEscan
Assay type in all cases: binding
FLT1 = FLT1 (Homo sapiens (Human), UniProt P17948); conditions: FLT1, 10000 nM; read-out: Percent Control
EGFR(L858R, T790M) = EGFR(L858R, T790M) (Homo sapiens (Human), UniProt P00533, L858R/T790M); conditions: 10000 nM, read-out: Percent Control
KIT = KIT (Homo sapiens (Human), UniProt P10721); conditions: 10000 nM, read-out: Percent Control
PIK3CA(E545A) = PIK3CA(E545A) (Homo sapiens (Human), UniProt P42336, E545A); conditions: 10000 nM, read-out: Percent Control
[1] = biological target: ABL1(Y253F)-phosphorylated (Homo sapiens (Human), UniProt P00519, Y253F); conditions: 10000 nM, read-out: Percent Control
SLK = SLK (Homo sapiens (Human), UniProt Q9H2G2); conditions: 10000 nM, read-out: Percent Control
GSK3B = GSK3B (Homo sapiens (Human), UniProt P49841); conditions: 10000 nM, read-out: Percent Control
Chain of GSK3B (P49841 whole entry): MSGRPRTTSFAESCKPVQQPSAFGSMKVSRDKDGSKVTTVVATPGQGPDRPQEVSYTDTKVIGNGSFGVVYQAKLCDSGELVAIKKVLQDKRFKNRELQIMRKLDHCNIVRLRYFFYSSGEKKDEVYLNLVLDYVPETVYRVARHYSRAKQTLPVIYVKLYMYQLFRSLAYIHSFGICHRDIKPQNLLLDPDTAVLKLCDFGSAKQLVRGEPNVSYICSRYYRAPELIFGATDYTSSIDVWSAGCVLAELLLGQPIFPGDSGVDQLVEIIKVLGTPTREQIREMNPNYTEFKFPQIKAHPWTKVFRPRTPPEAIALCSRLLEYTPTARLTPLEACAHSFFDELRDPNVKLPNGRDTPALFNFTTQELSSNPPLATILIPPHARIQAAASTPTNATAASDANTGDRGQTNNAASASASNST

CSNK1G1 = CSNK1G1 (Homo sapiens (Human), UniProt Q9HCP0); conditions: CSNK1G1, 10000 nM; read-out: Percent Control
Chain of CSNK1G1 (Q9HCP0 whole entry): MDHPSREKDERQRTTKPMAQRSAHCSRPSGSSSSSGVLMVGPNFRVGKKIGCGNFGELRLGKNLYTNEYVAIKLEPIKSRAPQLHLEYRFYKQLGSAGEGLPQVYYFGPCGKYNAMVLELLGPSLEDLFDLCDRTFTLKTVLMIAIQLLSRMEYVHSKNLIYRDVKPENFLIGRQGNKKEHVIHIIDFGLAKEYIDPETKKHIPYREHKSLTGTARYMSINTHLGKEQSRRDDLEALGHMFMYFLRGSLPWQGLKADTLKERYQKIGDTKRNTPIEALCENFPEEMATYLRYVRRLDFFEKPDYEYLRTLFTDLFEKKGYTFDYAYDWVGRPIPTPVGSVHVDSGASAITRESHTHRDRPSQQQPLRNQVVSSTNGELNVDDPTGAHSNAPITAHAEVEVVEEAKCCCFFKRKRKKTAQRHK

PIKFYVE = PIKFYVE (Homo sapiens (Human), UniProt Q9Y2I7); conditions: 10000 nM, read-out: Percent Control
PIK3CA(I800L) = PIK3CA(I800L) (Homo sapiens (Human), UniProt P42336, I800L); conditions: 10000 nM, read-out: Percent Control
PRKX = PRKX (Homo sapiens (Human), UniProt P51817); conditions: 10000 nM, read-out: Percent Control
ALK = ALK (Homo sapiens (Human), UniProt Q9UM73); conditions: 10000 nM, read-out: Percent Control
CAMKK2 = CAMKK2 (Homo sapiens (Human), UniProt Q96RR4); conditions: CAMKK2, 10000 nM; read-out: Percent Control
ACVR2B = ACVR2B (Homo sapiens (Human), UniProt Q13705); conditions: 10000 nM, read-out: Percent Control
FLT3(K663Q) = FLT3(K663Q) (Homo sapiens (Human), UniProt P36888, K663Q); conditions: 10000 nM, read-out: Percent Control
FLT3(ITD, D835V) = conditions: 10000 nM
PRKD2 = PRKD2 (Homo sapiens (Human), UniProt Q9BZL6); conditions: PRKD2, 10000 nM; read-out: Percent Control
DYRK1B = DYRK1B (Homo sapiens (Human), UniProt Q9Y463); conditions: 10000 nM, read-out: Percent Control
CASK = CASK (Homo sapiens (Human), UniProt O14936); conditions: 10000 nM, read-out: Percent Control
SNRK = SNRK (Homo sapiens (Human), UniProt Q9NRH2); conditions: 10000 nM, read-out: Percent Control
SGK2 = SGK2 (Homo sapiens (Human), UniProt Q9HBY8); conditions: SGK2, 10000 nM; read-out: Percent Control
Chain of SGK2 (Q9HBY8 whole entry): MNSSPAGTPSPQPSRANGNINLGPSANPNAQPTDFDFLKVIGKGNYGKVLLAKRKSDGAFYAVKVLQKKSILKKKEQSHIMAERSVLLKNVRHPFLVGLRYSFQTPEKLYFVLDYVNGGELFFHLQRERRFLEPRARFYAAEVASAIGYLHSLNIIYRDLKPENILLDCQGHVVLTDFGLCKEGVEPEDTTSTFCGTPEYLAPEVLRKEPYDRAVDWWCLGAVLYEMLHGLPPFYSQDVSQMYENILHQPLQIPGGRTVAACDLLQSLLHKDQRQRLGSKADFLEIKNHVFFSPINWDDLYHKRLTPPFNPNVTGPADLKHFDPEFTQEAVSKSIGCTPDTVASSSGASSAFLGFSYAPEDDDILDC

TRPM6 = TRPM6 (Homo sapiens (Human), UniProt Q9BX84); conditions: TRPM6, 10000 nM; read-out: Percent Control
PIK3CA(H1047L) = PIK3CA(H1047L) (Homo sapiens (Human), UniProt P42336, H1047L); conditions: 10000 nM, read-out: Percent Control
DRAK2 = DRAK2 (Homo sapiens (Human), UniProt O94768); conditions: DRAK2, 10000 nM; read-out: Percent Control
Chain of DRAK2 (O94768 whole entry): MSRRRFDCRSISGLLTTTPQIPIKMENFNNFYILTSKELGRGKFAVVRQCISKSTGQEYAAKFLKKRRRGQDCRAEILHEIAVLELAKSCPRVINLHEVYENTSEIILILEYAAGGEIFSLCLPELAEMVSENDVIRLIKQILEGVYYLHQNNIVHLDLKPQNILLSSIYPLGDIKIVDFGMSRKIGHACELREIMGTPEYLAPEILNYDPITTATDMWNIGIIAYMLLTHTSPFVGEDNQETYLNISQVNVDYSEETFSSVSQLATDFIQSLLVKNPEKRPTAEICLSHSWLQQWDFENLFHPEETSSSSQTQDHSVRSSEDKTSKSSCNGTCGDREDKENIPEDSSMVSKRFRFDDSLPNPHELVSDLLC

FGFR2 = FGFR2 (Homo sapiens (Human), UniProt P21802); conditions: FGFR2, 10000 nM; read-out: Percent Control
LZK = LZK (Homo sapiens (Human), UniProt O43283); conditions: 10000 nM, read-out: Percent Control
Chain of LZK (O43283 whole entry): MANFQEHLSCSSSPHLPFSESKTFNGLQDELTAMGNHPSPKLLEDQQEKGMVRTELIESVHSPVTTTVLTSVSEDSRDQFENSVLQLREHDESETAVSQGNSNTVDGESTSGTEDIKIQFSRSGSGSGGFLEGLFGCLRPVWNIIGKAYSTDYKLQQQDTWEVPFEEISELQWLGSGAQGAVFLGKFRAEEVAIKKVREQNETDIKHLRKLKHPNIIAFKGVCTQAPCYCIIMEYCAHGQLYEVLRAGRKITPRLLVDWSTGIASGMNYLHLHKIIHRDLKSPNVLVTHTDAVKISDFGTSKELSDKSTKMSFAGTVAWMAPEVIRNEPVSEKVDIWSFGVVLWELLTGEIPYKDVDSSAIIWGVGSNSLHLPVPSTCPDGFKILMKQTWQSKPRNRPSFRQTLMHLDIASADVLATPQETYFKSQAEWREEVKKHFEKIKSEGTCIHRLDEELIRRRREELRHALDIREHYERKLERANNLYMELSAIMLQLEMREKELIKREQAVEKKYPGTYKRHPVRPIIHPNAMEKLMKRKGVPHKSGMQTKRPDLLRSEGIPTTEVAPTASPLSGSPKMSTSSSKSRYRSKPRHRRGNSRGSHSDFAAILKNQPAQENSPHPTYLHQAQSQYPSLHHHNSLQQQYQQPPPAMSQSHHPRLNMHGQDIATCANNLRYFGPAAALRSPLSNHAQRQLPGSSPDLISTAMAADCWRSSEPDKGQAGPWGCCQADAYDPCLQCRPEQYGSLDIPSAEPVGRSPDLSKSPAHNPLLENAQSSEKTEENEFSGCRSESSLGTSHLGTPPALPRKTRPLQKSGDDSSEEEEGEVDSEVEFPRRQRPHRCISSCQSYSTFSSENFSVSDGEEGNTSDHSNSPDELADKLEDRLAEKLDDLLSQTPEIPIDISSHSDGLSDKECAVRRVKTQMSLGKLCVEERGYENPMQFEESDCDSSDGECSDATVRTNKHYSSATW

TNK1 = TNK1 (Homo sapiens (Human), UniProt Q13470); conditions: TNK1, 10000 nM; read-out: Percent Control
SGK3 = SGK3 (Homo sapiens (Human), UniProt Q96BR1); conditions: SGK3, 10000 nM; read-out: Percent Control
STK36 = STK36 (Homo sapiens (Human), UniProt Q9NRP7); conditions: STK36, 10000 nM; read-out: Percent Control
ULK1 = ULK1 (Homo sapiens (Human), UniProt O75385); conditions: ULK1, 10000 nM; read-out: Percent Control
PRKD1 = PRKD1 (Homo sapiens (Human), UniProt Q15139); conditions: PRKD1, 10000 nM; read-out: Percent Control
Chain of PRKD1 (Q15139 whole entry): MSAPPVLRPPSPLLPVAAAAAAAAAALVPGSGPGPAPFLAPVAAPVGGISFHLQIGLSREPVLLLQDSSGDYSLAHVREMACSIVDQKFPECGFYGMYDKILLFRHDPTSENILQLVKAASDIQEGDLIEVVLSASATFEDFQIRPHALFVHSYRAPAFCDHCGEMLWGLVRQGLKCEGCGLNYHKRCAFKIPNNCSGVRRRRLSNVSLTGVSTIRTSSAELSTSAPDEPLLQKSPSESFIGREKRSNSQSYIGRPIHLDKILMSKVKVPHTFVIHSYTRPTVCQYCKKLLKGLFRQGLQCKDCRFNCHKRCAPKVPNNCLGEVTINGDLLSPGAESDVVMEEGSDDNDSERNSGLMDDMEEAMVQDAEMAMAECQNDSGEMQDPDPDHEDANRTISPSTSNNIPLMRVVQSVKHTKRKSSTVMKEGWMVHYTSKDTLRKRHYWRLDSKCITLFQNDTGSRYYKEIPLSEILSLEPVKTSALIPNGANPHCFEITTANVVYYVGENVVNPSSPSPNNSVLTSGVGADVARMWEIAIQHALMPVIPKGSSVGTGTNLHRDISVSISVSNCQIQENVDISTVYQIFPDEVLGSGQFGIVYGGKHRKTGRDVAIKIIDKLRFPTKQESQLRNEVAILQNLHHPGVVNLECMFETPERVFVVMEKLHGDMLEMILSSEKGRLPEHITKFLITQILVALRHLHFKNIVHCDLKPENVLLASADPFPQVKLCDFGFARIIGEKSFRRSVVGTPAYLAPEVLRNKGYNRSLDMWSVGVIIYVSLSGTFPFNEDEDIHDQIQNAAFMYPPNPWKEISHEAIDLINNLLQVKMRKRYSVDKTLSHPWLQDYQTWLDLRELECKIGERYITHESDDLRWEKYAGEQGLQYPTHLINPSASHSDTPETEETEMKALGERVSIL

EGFR(T790M) = EGFR(T790M) (Homo sapiens (Human), UniProt P00533, T790M); conditions: 10000 nM, read-out: Percent Control
[2] = biological target: RSK4(Kin.Dom.1-N-terminal) (Homo sapiens (Human), UniProt Q9UK32); conditions: 10000 nM, read-out: Percent Control
Chain of RSK4(Kin.Dom.1-N-terminal) (Q9UK32 73-330): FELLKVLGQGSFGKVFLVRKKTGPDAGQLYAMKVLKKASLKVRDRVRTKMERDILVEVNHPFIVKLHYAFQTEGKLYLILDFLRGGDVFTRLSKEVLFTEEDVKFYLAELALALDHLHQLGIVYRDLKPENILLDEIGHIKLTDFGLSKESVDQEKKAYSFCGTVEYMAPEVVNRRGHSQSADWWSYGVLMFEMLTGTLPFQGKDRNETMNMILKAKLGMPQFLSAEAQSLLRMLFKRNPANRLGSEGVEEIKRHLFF

CDKL3 = CDKL3 (Homo sapiens (Human), UniProt Q8IVW4); conditions: CDKL3, 10000 nM; read-out: Percent Control
TRKB = TRKB (Homo sapiens (Human), UniProt Q16620); conditions: 10000 nM, read-out: Percent Control
NLK = NLK (Homo sapiens (Human), UniProt Q9UBE8); conditions: 10000 nM, read-out: Percent Control

Chain of FLT1 (P17948 27-1338): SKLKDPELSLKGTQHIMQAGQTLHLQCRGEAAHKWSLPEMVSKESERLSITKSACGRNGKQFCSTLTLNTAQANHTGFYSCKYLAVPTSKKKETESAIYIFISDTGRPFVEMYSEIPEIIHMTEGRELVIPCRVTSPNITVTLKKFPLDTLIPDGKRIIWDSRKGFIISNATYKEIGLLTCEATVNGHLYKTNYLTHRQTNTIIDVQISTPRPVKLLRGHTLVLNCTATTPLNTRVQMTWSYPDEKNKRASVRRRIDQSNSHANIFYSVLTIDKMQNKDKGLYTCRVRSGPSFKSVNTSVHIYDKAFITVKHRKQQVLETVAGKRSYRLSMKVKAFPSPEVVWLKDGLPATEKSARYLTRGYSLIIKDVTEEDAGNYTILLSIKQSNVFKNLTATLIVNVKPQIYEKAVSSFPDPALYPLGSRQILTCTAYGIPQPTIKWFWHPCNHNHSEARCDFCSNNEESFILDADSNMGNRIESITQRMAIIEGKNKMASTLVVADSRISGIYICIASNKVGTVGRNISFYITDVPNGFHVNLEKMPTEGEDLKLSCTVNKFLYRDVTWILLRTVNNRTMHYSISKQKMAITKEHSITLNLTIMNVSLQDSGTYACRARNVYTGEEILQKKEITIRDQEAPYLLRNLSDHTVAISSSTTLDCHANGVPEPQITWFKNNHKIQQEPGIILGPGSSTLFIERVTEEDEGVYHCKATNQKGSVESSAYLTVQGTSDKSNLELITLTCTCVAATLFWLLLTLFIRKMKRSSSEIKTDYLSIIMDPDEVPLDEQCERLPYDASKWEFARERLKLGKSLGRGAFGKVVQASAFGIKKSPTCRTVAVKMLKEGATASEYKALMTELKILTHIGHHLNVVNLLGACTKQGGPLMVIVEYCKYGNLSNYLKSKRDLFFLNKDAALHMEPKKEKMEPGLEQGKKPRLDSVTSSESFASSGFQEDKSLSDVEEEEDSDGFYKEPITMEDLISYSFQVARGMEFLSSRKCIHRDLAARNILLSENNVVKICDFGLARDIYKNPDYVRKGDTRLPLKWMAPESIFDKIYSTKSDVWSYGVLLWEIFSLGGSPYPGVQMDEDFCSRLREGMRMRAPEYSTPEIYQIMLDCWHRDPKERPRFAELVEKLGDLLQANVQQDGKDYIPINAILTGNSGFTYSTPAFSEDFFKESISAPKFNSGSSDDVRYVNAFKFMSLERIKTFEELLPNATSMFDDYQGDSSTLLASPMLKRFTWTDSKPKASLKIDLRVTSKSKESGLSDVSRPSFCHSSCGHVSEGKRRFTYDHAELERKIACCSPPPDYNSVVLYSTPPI

Compound	remaining binding at 10 µM (FLT1) [%]	remaining binding at 10 µM (EGFR(L858R, T790M)) [%]	remaining binding at 10 µM (KIT) [%]	remaining binding at 10 µM (PIK3CA(E545A)) [%]	remaining binding at 10 µM [1] [%]	remaining binding at 10 µM (SLK) [%]	remaining binding at 10 µM (GSK3B) [%]	remaining binding at 10 µM (CSNK1G1) [%]	remaining binding at 10 µM (PIKFYVE) [%]	remaining binding at 10 µM (PIK3CA(I800L)) [%]	remaining binding at 10 µM (PRKX) [%]	remaining binding at 10 µM (ALK) [%]	remaining binding at 10 µM (CAMKK2) [%]	remaining binding at 10 µM (ACVR2B) [%]	remaining binding at 10 µM (FLT3(K663Q)) [%]	Percent Control (FLT3(ITD, D835V)) [%]	remaining binding at 10 µM (PRKD2) [%]	remaining binding at 10 µM (DYRK1B) [%]	remaining binding at 10 µM (CASK) [%]	remaining binding at 10 µM (SNRK) [%]	further results
COc1cc(N2CCC(N3CCN(C)CC3)CC2)ccc1Nc1ncc2c(n1)N(C)c1sc(C)nc1C(=O)N2 [Compound 3, 6-((2-methoxy-4-(4-(4-methylpiperazin-1-yl)piperidin-1-yl)phenyl)amino)-2,4-dimethyl-4,9-dihydro-10H-pyrimido[5,4-b]thiazolo[5,4-e][1,4]diazepin-10-one]	87	100	54	84	47	70	95	86	98	100	96	100	80	92	96	100	72	69	83	94	remaining binding at 10 µM (SGK2): 99%; remaining binding at 10 µM (TRPM6): 100%; remaining binding at 10 µM (PIK3CA(H1047L)): 66%; remaining binding at 10 µM (DRAK2): 100%; remaining binding at 10 µM (FGFR2): 80%; remaining binding at 10 µM (LZK): 100%; remaining binding at 10 µM (TNK1): 53%; remaining binding at 10 µM (SGK3): 100%; remaining binding at 10 µM (STK36): 61%; remaining binding at 10 µM (ULK1): 100%; remaining binding at 10 µM (PRKD1): 78%; remaining binding at 10 µM (EGFR(T790M)): 100%; remaining binding at 10 µM [2]: 100%; remaining binding at 10 µM (CDKL3): 75%; remaining binding at 10 µM (TRKB): 100%; remaining binding at 10 µM (NLK): 59%
COc1cc(N2CCC(N3CCN(C)CC3)CC2)ccc1Nc1ncc2c(n1)N(C)c1sc(C)nc1C(=O)N2C [Compound 5, 6-((2-methoxy-4-(4-(4-methylpiperazin-1-yl)piperidin-1-yl)phenyl)amino)-2,4,9-trimethyl-4,9-dihydro-10H-pyrimido[5,4-b]thiazolo[5,4-e][1,4]diazepin-10-one]	100	80	100	100	100	100	99	97	60	70	99	99	88	100	96	100	46	87	100	100	remaining binding at 10 µM (SGK2): 98%; remaining binding at 10 µM (TRPM6): 92%; remaining binding at 10 µM (PIK3CA(H1047L)): 80%; remaining binding at 10 µM (DRAK2): 100%; remaining binding at 10 µM (FGFR2): 100%; remaining binding at 10 µM (LZK): 100%; remaining binding at 10 µM (TNK1): 10%; remaining binding at 10 µM (SGK3): 100%; remaining binding at 10 µM (STK36): 100%; remaining binding at 10 µM (ULK1): 98%; remaining binding at 10 µM (PRKD1): 43%; remaining binding at 10 µM (EGFR(T790M)): 93%; remaining binding at 10 µM [2]: 91%; remaining binding at 10 µM (CDKL3): 100%; remaining binding at 10 µM (TRKB): 100%; remaining binding at 10 µM (NLK): 93%
